The values below come from patent publication US9980943B2, “Methods of treating muscular dystrophy” (BOARD OF REGENTS OF THE NEVADA SYSTEM OF HIGHER EDUCATION, …, priority 2013, dated 2018).

Holding throughout (type): cell-based, mouse
Experiment [1] relates to α7 integrin (LacZ reporter in α7βgal+/− myoblasts). Kind of experiment: Myoblast α7+/LacZ integrin FDG assay (Burkin assay in myoblasts, 96-well). Conditions: α7+/LacZ myoblasts, 96-well.
In experiment [2] the test system is β-galactosidase in CMV-LacZ C2C12 myotubes. Kind of experiment: CMV-LacZ secondary screen in C2C12 myotubes (β-Gal stabilizing assay). To be noted: for CMV-LACZ in Myotubes (β-galactosidase activity relative to DMSO): CMV-LacZ C2C12 myotubes, 96-well format; for CMV-LACZ in Myotubes, signal relative to DMSO: C2C12 CMV-LacZ myotubes, fold relative to DMSO. From the text: In order to determine compounds that acted to stabilize β-gal in myogenic cells, a CMV-LacZ C2C12 cell line was used in a secondary screen. The EGFP gene from the pEGFP (Clontech) vector was replaced by LACZ PCR product with digests of the vector/PCR product performed using EcoRI (NEB) and NotI (NEB) and ligated using T4 DNA Ligase (NEB) following standard procedures to produce the CMV-LACZ vector. The LACZ gene was generated by PCR from the pBK-RSV (Stratagene) vector using primers LACZ EcoRI F- and LACZ NotI R-. The CMV-LACZ vector was then digested with AfIII (NEB) to linearize the construct, which was then transfected in C2C12 myoblasts using Lipofectamine 2000 (Invitrogen) following the manufacturer's instructions. […] Clonal lines were selected and screened for βgal levels using the myoblast FDG assay.
The assays were used the original 96-well format and new dose-response curves for myoblasts (N=3-6 replicates for each data point), myotubes (N=3-6 replicates for data point), and CMV-LacZ secondary assay (N=2 replicates for each data point) using concentrations of 0.5 μM, 1 μM, 5 μM, 10 μM, 20 μM, and 40 μM (Tables 9-16).

Experiment [3] deals with α7 integrin (LacZ reporter in α7+/LacZ myotubes). Kind of experiment: Myotube α7 integrin FDG assay (Burkin assay in myotubes, 96-well). To be noted: myotubes.

With `COc1ccccc1OCC(=O)Nc1cc2c(cc1C(=O)O)OCCCO2` [MLS001177045-01], the “Burkin Assay in Myoblasts, value relative to DMSO” value worked out at 0.8463 in experiment [1] (0.5 uM); 1.032 in experiment [1] (1 uM); 1.0025 in experiment [1] (5 uM); 1.0259 in experiment [1] (10 uM); 1.031 in experiment [1] (20 uM); 0.9569 in experiment [1] (40 uM). Further, the “CMV-LACZ in Myotubes (β-galactosidase activity relative to DMSO)” value in experiment [2] (5 uM) stood at 0.9238; in experiment [2] (10 uM), 1.11; in experiment [2] (20 uM), 1.058; in experiment [2] (40 uM), 1.118. The “Burkin Assay in Myotubes (signal relative to DMSO)” value was found to be 1.047 in experiment [3] (0.5 uM); 0.8145 in experiment [3] (1 uM); 1.024 in experiment [3] (5 uM); 1.0851 in experiment [3] (10 uM); 1.11 in experiment [3] (20 uM); 0.9678 in experiment [3] (40 uM).

Regarding `O=c1[nH]c(C2CCCN(S(=O)(=O)c3ccccc3)C2)nc2c1nnn2Cc1cccc(Cl)c1` (stereo not shown) [MLS001217286-01], the “Burkin Assay in Myoblasts, value relative to DMSO” value in experiment [1] (0.5 uM) amounted to 0.7428; in experiment [1] (1 uM) it was 0.8506; in experiment [1] (5 uM), 0.7671; in experiment [1] (10 uM) it was 0.8273; in experiment [1] (20 uM), 1.006; in experiment [1] (40 uM), 1.068. Also, the “CMV-LACZ in Myotubes (β-galactosidase activity relative to DMSO)” value is given as 0.9599 in experiment [2] (5 uM), 1.227 in experiment [2] (10 uM), 0.3991 in experiment [2] (20 uM) and 0.3604 in experiment [2] (40 uM). Further, the “Burkin Assay in Myotubes (signal relative to DMSO)” value in experiment [3] (0.5 uM) was 0.7617; in experiment [3] (1 uM) it was 0.9911; in experiment [3] (5 uM), 1.193; in experiment [3] (10 uM) it was 1.219; in experiment [3] (20 uM), 1.095; in experiment [3] (40 uM) it was 0.5964.

On to `CC(C)N(CCO)C(=O)CCc1nnc(CCCc2ccccc2)o1` [MLS000733703-01], for which the “Burkin Assay in Myoblasts, value relative to DMSO” value is listed as 0.988 in experiment [1] (0.5 uM); 0.9592 in experiment [1] (1 uM); 0.8919 in experiment [1] (5 uM); 0.8734 in experiment [1] (10 uM); 0.8635 in experiment [1] (20 uM); 0.8463 in experiment [1] (40 uM). Moreover, the “CMV-LACZ in Myotubes, signal relative to DMSO” value in experiment [2] (5 uM) amounted to 1.1188; in experiment [2] (10 uM), 0.8654; in experiment [2] (20 uM), 0.9583; in experiment [2] (40 uM) it was 0.7965. The “Burkin Assay in Myotubes (signal relative to DMSO)” value came out at 1.063 in experiment [3] (0.5 uM); 1.128 in experiment [3] (1 uM); 0.8779 in experiment [3] (5 uM); 1.147 in experiment [3] (10 uM); 0.9957 in experiment [3] (20 uM); 0.894 in experiment [3] (40 uM).

With `COCCN(CC(=O)Nc1cccc(C)c1C)C(=O)C1CCN(S(=O)(=O)c2ccccc2)CC1` [MLS002156278-01], the “Burkin Assay in Myoblasts, value relative to DMSO” value is reported as 0.8597 in experiment [1] (0.5 uM); 0.9642 in experiment [1] (1 uM); 1.01 in experiment [1] (5 uM); 0.9653 in experiment [1] (10 uM); 0.8604 in experiment [1] (20 uM); 0.8246 in experiment [1] (40 uM). The “CMV-LACZ in Myotubes (β-galactosidase activity relative to DMSO)” value in experiment [2] (5 uM) came out at 0.8694; in experiment [2] (10 uM) it was 1.096; in experiment [2] (20 uM) it was 0.9667; in experiment [2] (40 uM), 1.031. Besides, the “Burkin Assay in Myotubes (signal relative to DMSO)” value in experiment [3] (0.5 uM) came out at 1.005; in experiment [3] (1 uM) it was 0.9637; in experiment [3] (5 uM), 0.6908; in experiment [3] (10 uM), 0.9924; in experiment [3] (20 uM), 0.9719; in experiment [3] (40 uM), 1.025.

As for `COc1cc(Cl)cc(CN2CCC(CCC(=O)NC3CC3)CC2)c1OC` [MLS001162872-01], the “Burkin Assay in Myoblasts, value relative to DMSO” value was 0.9547 in experiment [1] (0.5 uM); 0.949 in experiment [1] (1 uM); 0.9025 in experiment [1] (5 uM); 0.904 in experiment [1] (10 uM); 0.783 in experiment [1] (20 uM); 0.7773 in experiment [1] (40 uM). For the same compound, the “CMV-LACZ in Myotubes, signal relative to DMSO” value in experiment [2] (5 uM) came to 0.7855; in experiment [2] (10 uM) it was 1.084; in experiment [2] (20 uM), 1.061; in experiment [2] (40 uM), 0.9794. Moreover, the “Burkin Assay in Myotubes (signal relative to DMSO)” value worked out at 1.13 in experiment [3] (0.5 uM); 1.051 in experiment [3] (1 uM); 0.8369 in experiment [3] (5 uM); 1.031 in experiment [3] (10 uM); 1.034 in experiment [3] (20 uM); 0.8876 in experiment [3] (40 uM).

In the case of `COc1ccc(S(=O)(=O)N2CCN(C(=O)C3CCC3)CC2)cc1` [MLS001139515-01], the “Burkin Assay in Myoblasts, value relative to DMSO” value is listed as 0.9225 in experiment [1] (0.5 uM); 0.9852 in experiment [1] (1 uM); 1.053 in experiment [1] (5 uM); 1.16 in experiment [1] (10 uM); 0.8336 in experiment [1] (20 uM); 0.8527 in experiment [1] (40 uM). The “CMV-LACZ in Myotubes (β-galactosidase activity relative to DMSO)” value in experiment [2] (5 uM) is reported as 0.9404; in experiment [2] (10 uM), 0.7604; in experiment [2] (20 uM), 0.9237; in experiment [2] (40 uM), 0.9601. The “Burkin Assay in Myotubes (signal relative to DMSO)” value in experiment [3] (0.5 uM) amounted to 0.9636; in experiment [3] (1 uM), 1.009; in experiment [3] (5 uM), 1.013; in experiment [3] (10 uM) it was 0.9488; in experiment [3] (20 uM) it was 1.124; in experiment [3] (40 uM), 1.013.

`CC(C)(C)n1cnc2cc(NC(=O)c3ccco3)ccc21` [MLS001223567-01]: the “Burkin Assay in Myoblasts, signal relative to DMSO” value in experiment [1] (0.5 uM) amounted to 1.044; in experiment [1] (1 uM), 1.082; in experiment [1] (5 uM), 0.9608; in experiment [1] (10 uM), 0.9203; in experiment [1] (20 uM), 0.8579; in experiment [1] (40 uM), 0.864. Also, the “CMV-LACZ in Myotubes, signal relative to DMSO” value stood at 1.002 in experiment [2] (5 uM), 0.8931 in experiment [2] (10 uM), 1.241 in experiment [2] (20 uM) and 1.012 in experiment [2] (40 uM). For the same compound, the “Burkin Assay in Myotubes, α7 integrin LacZ reporter signal relative to DMSO” value in experiment [3] (0.5 uM) is recorded as 0.9533; in experiment [3] (1 uM), 0.9978; in experiment [3] (5 uM), 0.8636; in experiment [3] (10 uM), 0.924; in experiment [3] (20 uM), 0.9991; in experiment [3] (40 uM) it was 0.9931.
